Test system: relapsed or refractory, rituximab-naive or -sensitive follicular B-cell NHL
Test: Time to next anti-lymphoma therapy, Vc-R vs rituximab study, by biomarker
Type: in vivo, human
Design: Median, Time to Next Anti-Lymphoma Therapy / Time to Next Anti-Lymphoma Therapy, Median: unit not given here
Excerpt: Non-Hodgkin lymphoma (NHL) encompasses several unique malignant lymphoid disease entities that vary in clinical behavior, morphologic appearance, immunologic, and molecular phenotype. […] A randomized, open-label, active-controlled, multicenter, multinational, prospective study to compare the efficacy and safety of the combination of bortezomib and rituximab (Vc-R) to single-agent rituximab in subjects who have relapsed or refractory, rituximab-naive or -sensitive follicular B-cell NHL was performed.
Subjects were centrally randomized to Treatment Groups A (Vc-R) or B (rituximab) in a 1:1 ratio taking into account the following stratification factors: • Follicular Lymphoma International Prognostic Index (FLIPI) score (low [0 or 1 factor], intermediate [2 factors], high [≧3 factors]); • Prior rituximab therapy (yes, no); • Time since last dose of anti-lymphoma therapy (≦1 year, >1 year); • Region (United States/Canada, European Union, Rest of World).
The following clinical endpoints were included in the analysis within each treatment group and an overall comparison was made with the biomarker-related endpoints: Progression-free survival, defined as the interval between the date of randomization and the date of progressive disease (PD) or death, whichever is first reported in the ITT population; overall survival; overall response rate (complete response [CR]+CR unconfirmed [CRu]+partial response [PR]); overall CR rate (CR+CRu); duration of response; time to next anti-lymphoma therapy; and treatment free interval.

[1] = CD68 POSITIVE PERIFOLLICULAR: 0-25, White, IRC Review
[2] = CD68 POSITIVE PERIFOLLICULAR: 0-25, ≦65 years old, IRC Review
[3] = CD68 POSITIVE PERIFOLLICULAR: 26-50, Other, IRC Review
[4] = CD68 POSITIVE PERIFOLLICULAR: >75, 1 Prior Line of Therapy, IRC Review
[5] = CD68 POSITIVE PERIFOLLICULAR: >75, European Union, IRC Review
[6] = CD68 POSITIVE PERIFOLLICULAR: >75, ≦65 years old, IRC Review
[7] = NOTCH/G_A1702P: MND, subgroup White, IRC review
[8] = NOTCH/I1681N: MND, subgroup White, IRC review
[9] = NOTCH/L1679P: MND, subgroup White, IRC review
[10] = NOTCH/L1679Q: MND, subgroup White, IRC review
[11] = NOTCH/L2458V: MND, subgroup White, IRC review
[12] = NOTCH/P2513L: MND, subgroup White, IRC review
[13] = NOTCH/P2515FS4: MND, subgroup White, IRC review
[14] = NOTCH/Q2441X: MND, subgroup White, IRC review
[15] = NOTCH/Q2460X: MND, subgroup White, IRC review
[16] = NOTCH/X26DEL: MND, subgroup White, IRC review
[17] = NOTCH/X26INS: MND, subgroup White, IRC review
[18] = NOTCH/X28DEL: MND, subgroup White, IRC review
[19] = NOTCH/X28INS: MND, subgroup White, IRC review
[20] = P27 % NUCLEI POSITIVE: 0-20, 1 Prior Line of Therapy, IRC Review
[21] = P27 % NUCLEI POSITIVE: 0-20, Ann Arbor Stage III, IRC Review
[22] = P27 % NUCLEI POSITIVE: 0-20, High Tumor Burden, IRC Review
[23] = P27 % NUCLEI POSITIVE: 0-20, ≦65 years old, IRC Review
[24] = P27 % NUCLEI POSITIVE: 30-50, High Tumor Burden, IRC Review
[25] = P27 % NUCLEI POSITIVE: 80-100, European Union, IRC Review
[26] = P27 SIGNAL INTENSITY: ≦1+, High Tumor Burden, IRC Review
[27] = P27 SIGNAL INTENSITY: ≧2+, 5 Prior Lines of Therapy, IRC Review
[28] = P27 SIGNAL INTENSITY: ≧2+, European Union, IRC Review
[29] = P27 SIGNAL INTENSITY: ≧2+, Prior Rituximab Therapy, IRC Review
[30] = P27 SIGNAL INTENSITY: ≧2+, White, IRC Review
[31] = P27 SIGNAL INTENSITY: ≧2+, ≦65 years old, IRC Review
[32] = P27 SIGNAL TENSITY: ≧2+, No Subgroup, IRC Review
[33] = P65 % NUCLEAR STAINING: 0, 1 Prior Line of Therapy, IRC Review
[34] = P65 % NUCLEAR STAINING: ≦5%, 2 Prior Lines of Therapy, IRC Review
[35] = P65 % NUCLEAR STAINING: ≦5%, 5 Prior Lines of Therapy, IRC Review
[36] = P65 % NUCLEAR STAINING: ≦5%, Prior Rituximab Therapy, IRC Review
[37] = P65 % NUCLEAR STAINING: ≦5%, ≦65 years old, IRC Review
[38] = P65 % POSITIVE CYTOPLASMIC SIGNAL: >90%, 1 Prior Line of Therapy, IRC Review
[39] = P65 % POSITIVE CYTOPLASMIC SIGNAL: >90%, >1 year since last anti- lymphoma treatment, IRC Review
[40] = P65 % POSITIVE CYTOPLASMIC SIGNAL: >90%, European Union, IRC Review
[41] = P65 % POSITIVE CYTOPLASMIC SIGNAL: >90%, Male, IRC Review
[42] = P65 % POSITIVE CYTOPLASMIC SIGNAL: >90%, No Subgroup, IRC Review
[43] = P65 % POSITIVE CYTOPLASMIC SIGNAL: >90%, White, IRC Review
[44] = P65 % POSITIVE CYTOPLASMIC SIGNAL: >90%, ≦65 years old, IRC Review
[45] = P65 INTENSITY CYTOPLASMIC SIGNAL: ≦1+, Ann Arbor Stage III, IRC Review
[46] = P65 INTENSITY CYTOPLASMIC SIGNAL: ≦1+, European Union, IRC Review
[47] = P65 INTENSITY CYTOPLASMIC SIGNAL: ≧2+, 1 Prior Line of Therapy, IRC Review
[48] = P65 INTENSITY CYTOPLASMIC SIGNAL: ≧2+, Female, IRC Review
[49] = P65 INTENSITY CYTOPLASMIC SIGNAL: ≧2+, White, IRC Review

rituximab was tested, and the “Evt/N, Time to Next Anti-Lymphoma Therapy” value (from here on “Evt/N, Time”) [1] was 19/27, the “Median, Time to Next Anti-Lymphoma Therapy” value (“Median, Time” below) [1] was 501 and the “Evt/N, Time” value [2] was 20/31. The “Median, Time” value [2] was 332, the “Evt/N, Time” value [3] was 4/4 and the “Median, Time” value [3] was 341. The “Evt/N, Time” value [4] was 15/18, the “Median, Time” value [4] was 437 and the “Evt/N, Time” value [5] was 13/17. The “Median, Time” value [5] was 675, the “Evt/N, Time” value [6] was 19/23 and the “Median, Time” value [6] was 437. For the same substance, the “Evt/N, Time” value [7] was 97/152, the “Median, Time” value [7] was 504 and the “Evt/N, Time” value [8] was 97/152. The “Median, Time” value [8] was 504, the “Evt/N, Time” value [9] was 97/152 and the “Median, Time” value [9] was 504. The “Evt/N, Time” value [10] was 97/152, the “Median, Time” value [10] was 504 and the “Evt/N, Time” value [11] was 89/140. For the same substance, the “Median, Time” value [11] was 504, the “Evt/N, Time” value [12] was 78/122 and the “Median, Time” value [12] was 504. For the same substance, the “Evt/N, Time” value [13] was 99/154, the “Median, Time” value [13] was 505 and the “Evt/N, Time” value [14] was 88/139. For the same substance, the “Median, Time” value [14] was 501, the “Evt/N, Time” value [15] was 85/131 and the “Median, Time” value [15] was 501. The “Evt/N, Time” value [16] was 99/155, the “Median, Time” value [16] was 505 and the “Evt/N, Time” value [17] was 101/159. For the same substance, the “Median, Time” value [17] was 533, the “Evt/N, Time” value [18] was 111/169 and the “Median, Time” value [18] was 504. For the same substance, the “Evt/N, Time” value [19] was 115/174, the “Median, Time” value [19] was 504 and the “Evt/N, Time” value [20] was 19/26. For the same substance, the “Median, Time” value [20] was 434, the “Evt/N, Time” value [21] was 14/16 and the “Median, Time” value [21] was 418. The “Evt/N, Time” value [22] was 23/27, the “Median, Time” value [22] was 220 and the “Evt/N, Time” value [23] was 26/34. For the same substance, the “Median, Time” value [23] was 327, the “Evt/N, Time” value [24] was 17/22 and the “Median, Time” value [24] was 421. For the same substance, the “Evt/N, Time” value (P27 % NUCLEI POSITIVE: 60-70, 3 Prior Lines of Therapy, IRC Review) was 1/6, the “Evt/N, Time” value [25] was 29/41 and the “Median, Time” value [25] was 655. The “Evt/N, Time” value [26] was 16/18, the “Median, Time” value [26] was 220 and the “Evt/N, Time” value [27] was 5/6. For the same substance, the “Median, Time” value [27] was 228, the “Evt/N, Time” value [28] was 57/89 and the “Median, Time” value [28] was 649. For the same substance, the “Evt/N, Time” value [29] was 60/88, the “Median, Time” value [29] was 421 and the “Evt/N, Time” value [30] was 113/177. For the same substance, the “Median, Time” value [30] was 533, the “Evt/N, Time” value [31] was 103/153 and the “Median, Time” value [31] was 484. For the same substance, the “Evt/N, Time” value [32] was 127/199, the “Median, Time” value [32] was 533 and the “Evt/N, Time” value [33] was 54/79. For the same substance, the “Median, Time” value [33] was 546, the “Evt/N, Time” value [34] was 7/9 and the “Median, Time” value [34] was 225. The “Evt/N, Time” value [35] was 3/3, the “Median, Time” value [35] was 235 and the “Evt/N, Time” value [36] was 16/21. The “Median, Time” value [36] was 232, the “Evt/N, Time” value [37] was 19/29 and the “Median, Time” value [37] was 374. The “Evt/N, Time” value [38] was 59/89, the “Median, Time” value [38] was 550 and the “Evt/N, Time” value [39] was 69/117. For the same substance, the “Median, Time” value [39] was 593, the “Evt/N, Time” value [40] was 57/92 and the “Median, Time” value [40] was 552. For the same substance, the “Evt/N, Time” value [41] was 51/72, the “Median, Time” value [41] was 427 and the “Evt/N, Time” value [42] was 129/204. For the same substance, the “Median, Time” value [42] was 505, the “Evt/N, Time” value [43] was 113/179 and the “Median, Time” value [43] was 505. The “Evt/N, Time” value [44] was 103/154, the “Median, Time” value [44] was 484 and the “Evt/N, Time” value [45] was 10/11. For the same substance, the “Median, Time” value [45] was 261, the “Evt/N, Time” value [46] was 13/18 and the “Median, Time” value [46] was 409. The “Evt/N, Time” value [47] was 54/85, the “Median, Time” value [47] was 568 and the “Evt/N, Time” value [48] was 74/129. The “Median, Time” value [48] was 537, the “Evt/N, Time” value [49] was 109/176 and the “Median, Time” value [49] was 533. For the same substance, the “Evt/N, Time” value (P65 INTENSITY CYTOPLASMIC SIGNAL: ≧2+, ≦65 years old, IRC Review) was 101/152.

Reference: US9322066B2, “Predictors for cancer treatment” (priority 2011, dated 2016)
